Laboratory results reported in ChEMBL document CHEMBL1641531, “Receptor activity and conformational analysis of 5'-halogenated resiniferatoxin analogs as TRPV1 ligands” (Bioorg Med Chem Lett, 2011).

What was measured:
[1] = target: T1, Transient receptor potential cation channel subfamily V member 1 (Rattus norvegicus, UniProt O35433); assay: Displacement of [3H]RTX from rat […] expressed in CHO cells by competitive binding assay; type: cell-based
[2] = target: T1, Transient receptor potential cation channel subfamily V member 1; assay: Agonist activity at rat TRPV1 expressed in CHO cells assessed as 45Ca2+ uptake; type: functional, cell-based
[3] = target: T1, Transient receptor potential cation channel subfamily V member 1; assay: (§1) Antagonist activity at rat TRPV1 expressed in CHO cells assessed as response to capsaicin-stimulated 45Ca2+ uptake; type: functional, cell-based
[4] = target: Transient receptor potential cation channel subfamily V member 1 (Rattus norvegicus) (UniProt O35433); assay: Agonist activity at rat TRPV1 expressed in CHO cells assessed as 45Ca2+ uptake relative to capsaicin; type: functional, cell-based
[5] = target: Transient receptor potential cation channel subfamily V member 1 (Rattus norvegicus) (UniProt O35433); assay: as §1; type: functional, cell-based; parameters: scale not given: the % may be the effect or the level left

T1 sequence (O35433 whole entry): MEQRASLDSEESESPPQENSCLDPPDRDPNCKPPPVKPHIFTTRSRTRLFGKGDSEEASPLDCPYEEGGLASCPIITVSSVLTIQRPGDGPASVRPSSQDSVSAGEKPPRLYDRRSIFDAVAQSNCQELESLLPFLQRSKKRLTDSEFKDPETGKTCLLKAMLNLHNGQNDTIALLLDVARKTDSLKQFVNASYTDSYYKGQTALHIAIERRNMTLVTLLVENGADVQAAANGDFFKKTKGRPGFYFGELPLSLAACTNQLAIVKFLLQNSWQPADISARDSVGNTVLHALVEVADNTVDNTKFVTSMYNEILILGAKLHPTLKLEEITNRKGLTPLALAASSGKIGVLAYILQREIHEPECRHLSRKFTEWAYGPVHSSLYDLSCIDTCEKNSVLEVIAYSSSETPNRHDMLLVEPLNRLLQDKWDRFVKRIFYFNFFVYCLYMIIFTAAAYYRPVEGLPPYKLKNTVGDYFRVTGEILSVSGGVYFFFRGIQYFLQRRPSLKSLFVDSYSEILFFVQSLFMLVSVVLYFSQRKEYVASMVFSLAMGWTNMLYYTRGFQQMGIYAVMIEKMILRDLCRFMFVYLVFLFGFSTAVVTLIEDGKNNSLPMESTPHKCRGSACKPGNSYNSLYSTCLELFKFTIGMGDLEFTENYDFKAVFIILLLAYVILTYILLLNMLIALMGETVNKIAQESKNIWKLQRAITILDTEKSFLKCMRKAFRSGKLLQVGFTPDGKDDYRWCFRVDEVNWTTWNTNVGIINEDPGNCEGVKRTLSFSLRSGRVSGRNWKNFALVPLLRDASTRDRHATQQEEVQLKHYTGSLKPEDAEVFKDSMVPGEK
Transient receptor potential cation channel subfamily V member 1 (Rattus norvegicus), sequence (O35433 whole entry): as above

| SMILES | Ki [1] [nM] | EC50 ([2]; cho) | Ki ([3]; read-out: Ki) [nM] | Activity [4] [%] | EC50 ([2]; read-out: EC50) [nM] | Ki ([3]; cho) | Activity [5] [%] |
| --- | --- | --- | --- | --- | --- | --- | --- |
| C=C(C)[C@@]12C[C@@H](C)C34OC(Cc5ccccc5)(OC1[C@@H]3C=C(COC(=O)Cc1cc(Br)c(N)c(OC)c1)C[C@]1(O)C(=O)C(C)=C[C@@H]41)O2 (stereo partly specified) | 1.99 | Not Active | 2.81 | – | – | – | – |
| C=C(C)[C@@]12C[C@@H](C)C34OC(Cc5ccccc5)(OC1[C@@H]3C=C(COC(=O)Cc1cc(Br)c(O)c(OC)c1)C[C@]1(O)C(=O)C(C)=C[C@@H]41)O2 (stereo partly specified) | 0.17 | – | 7.2 | 19 | – | – | – |
| C=C(C)[C@@]12C[C@@H](C)C34OC(Cc5ccccc5)(OC1[C@@H]3C=C(COC(=O)Cc1cc(Cl)c(O)c(OC)c1)C[C@]1(O)C(=O)C(C)=C[C@@H]41)O2 (stereo partly specified) | 1.03 | – | – | – | 5.7 | Not Active | – |
| C=C(C)[C@]12C[C@@H](C)[C@@]34O[C@](Cc5ccccc5)(O[C@@H]1[C@@H]3C=C(COC(=O)Cc1ccc(O)c(OC)c1)C[C@]1(O)C(=O)C(C)=C[C@@H]41)O2 [RESINIFERATOXIN] | – | – | – | – | – | Not Active | – |
| C=C(C)[C@@]12C[C@@H](C)C34OC(Cc5ccccc5)(OC1[C@@H]3C=C(COC(=O)Cc1cc(Cl)c(N)c(OC)c1)C[C@]1(O)C(=O)C(C)=C[C@@H]41)O2 (stereo partly specified) | 0.85 | – | – | 34 | – | – | 56 |
| C=C(C)[C@@]12C[C@@H](C)C34OC(Cc5ccccc5)(OC1[C@@H]3C=C(COC(=O)Cc1ccc(N)c(OC)c1)C[C@]1(O)C(=O)C(C)=C[C@@H]41)O2 (stereo partly specified) | 0.13 | – | – | – | 0.46 | Not Active | – |
| C=C(C)[C@@]12C[C@@H](C)C34OC(Cc5ccccc5)(OC1[C@@H]3C=C(COC(=O)Cc1cc(Br)c(OC(C)=O)c(OC)c1)C[C@]1(O)C(=O)C(C)=C[C@@H]41)O2 (stereo partly specified) | 0.3 | – | – | 37 | – | – | 30 |
| C=C(C)[C@@]12C[C@@H](C)C34OC(Cc5ccccc5)(OC1[C@@H]3C=C(COC(=O)Cc1cc(I)c(O)c(OC)c1)C[C@]1(O)C(=O)C(C)=C[C@@H]41)O2 (stereo partly specified) | 0.61 | Not Active | 12.2 | – | – | – | – |
| C=C(C)[C@@]12C[C@@H](C)C34OC(Cc5ccccc5)(OC1[C@@H]3C=C(COC(=O)Cc1cc(Br)cc(Br)c1)C[C@]1(O)C(=O)C(C)=C[C@@H]41)O2 (stereo partly specified) | 110 | – | – | – | 1070 | Not Active | – |
| C=C(C)[C@@]12C[C@@H](C)C34OC(Cc5ccccc5)(OC1[C@@H]3C=C(COC(=O)Cc1cc(F)c(O)c(OC)c1)C[C@]1(O)C(=O)C(C)=C[C@@H]41)O2 (stereo partly specified) | 0.26 | – | – | – | 1.88 | Not Active | – |
| C=C(C)[C@@]12C[C@@H](C)C34OC(Cc5ccccc5)(OC1[C@@H]3C=C(COC(=O)Cc1cc(F)c(N)c(OC)c1)C[C@]1(O)C(=O)C(C)=C[C@@H]41)O2 (stereo partly specified) | 0.7 | – | – | – | 1.14 | Not Active | – |
